Results: patent publication US20230233584A1, “EXTENDED RELEASE 5-HT RECEPTOR AGONISTS FOR NEUROLOGICAL CONDITIONS” (Diamond Therapeutics Inc., priority 2020, published 2023)
Entries after “also recorded” stand apart in the source; their conditions may differ.

What was measured:
Format in all cases: in vivo
[1] = tested on: Long Evans rats; test: Progressive ratio (PR) test, Study B
Procedure: (§1) General: Experiments were conducted to test psilocybin doses in the range of 0.01-0.2 mg/kg psilocybin administered S.C. across progressive ratio (PR) and 5-choice serial reaction time task (5CSRTT) to examine the effect of psilocybin on endophenotypes of motivation and attention. In each study, a population of out-bred Long Evans rats was first tested as a group for response to the PR and 5CSRTT. Each group was then divided into subgroups by tertiles according to performance, and then exposed to various dose levels immediately prior to re-testing at various psilocybin dose levels.
(§2) The PR test is used to answer how willing the test subject is to work for food (i.e. test of motivation). A single 45 mg food pellet (i.e. reinforcer) is made available to the test animal based on lever press response. To obtain each successive pellet, the animal must make increasingly more lever presses. Typically, a progression of 2, 4, 6, 9, 12, 15, 20, 25, 32, 40, 50, 62, 77, 95, 118, etc. is used, derived from the equation:
(§3) ratio=[5×e^(0.2×reinforcer #)−5]
(§4) At some point, the animal gives up as the motor demands to obtain a single pellet are not deemed worthwhile (i.e. animal reaches “break point” defined as animal's failure to earn a food pellet in 20 minutes).
Study B: Based on Study 1 outcome, a follow-up PR study was conducted utilizing a larger cohort size (72 rats total), and incorporating a lower dose of psilocybin (0.025 mg/kg SC) (FIG. 2C and FIG. 2D). […] Separation of rats based on the lowest average break point recorded over the 7 days prior to testing identified a “low responder” subgroup of N=24 rats. […] There was no treatment effect on session duration (F3,69=2.4; P=0.07, NS), although there was trend for this to be increased at the 0.1 mg/kg dose (Veh: 15.1+2.0 min; Psilo 0.1 mg/kg: 18.7+2.5 min).

[2] = tested on: rats; test: Locomotor activity, distance travelled
From the text: Stimulant drugs cause far larger increases in distance travelled with escalating doses, reflective of a direct motor stimulant property not seen with psilocybin.

[3] = tested on: Long Evans rats; test: Progressive ratio (PR) test, Study A; details: for food responding: low responder subgroup
Procedure: as §1, §2, §3, §4
Study A: Psilocybin was administered to rats S.C. at doses of 0.05, 0.1 and 0.2 mg/kg.
Rats were then sub-grouped into tertiles based on the number of lever presses for food at baseline, so that within the test population of 36 animals, 12 animals were identified as low responders, characterized by low motivation and potentially corresponding to low motivation endophenotype representative of clinical depression. Twelve animals were identified as high responders. There was a statistically significant difference between the high and low responders. […] This represents a motivational enhancing effect of psilocybin at the 0.05 mg/kg dose in the cohort corresponding to a low motivation endophenotype representative of clinical depression.

[4] = Body weight during 12-day minipump study; details: rats
[5] = tested on: Long Evans rats; test: 5-CSRTT during 12-day minipump (extended release) dosing of poor performing rats; details: for increase in premature behaviors: minipump (ER dosing)
Procedure: The 5-choice serial reaction time task (5-CSRTT) was used to measure attentional performance in rodents. The test design involves training animals to respond to a brief visual stimulus presented unpredictably in one of five locations. Once trained to stable performance levels, the effects of experimental manipulations on response speed and choice accuracy were measured and each are related to attentional performance. The test was used to examine aspects of response control with responding prior to stimulus onset, i.e., a premature response, becoming a measure of motor impulsivity. The test is adaptable to task modification. Variations to stimulus duration (SD, 0.03-1 s duration) and frequency of stimulus presentation (2-10 s), amongst others have become commonly used to tax performance.
72 male Long Evans rats (source: Charles River, St. Constant, QE) were trained to asymptotic performance in the 5-CSRTT over a period of approximately 2 months. The rats were trained to final stimulus duration (SD) of 0.75 s, 5 s inter-trial interval (ITI), 5 s limited hold (LH), 100 trials per session. The rats were singly housed and food restricted to ˜20 g food/day throughout the study.
While the target performance levels under these conditions was in the range of >80% accuracy, <20% omissions, individual rats show different performance levels based on attentional accuracy or measures of impulsive action. The selection phase involves selecting the “worst” 40 rats based on both attentional performance (lowest performance based on accuracy measures of % correct/% hit) and/or impulsive action ([…] levels of premature responses noted at an extended 10 s ITI schedule and also baseline testing).
During the training period, 72 rats were trained on the 5-CSRTT, and the 40 worst performers. The 40 animals with the “worst” attentional performance (lowest performance based on accuracy measures of % correct, omissions and response speed) and impulsive action (PREM responses) were selected for the experiment. These 40 poor performing rats were allocated into one of two cohorts, with N=16 rats implanted with a vehicle (saline, Group A) minipumps and N=24 implanted with minipumps primed with psilocybin.
For 12 days following pump implantation surgery, rats were assessed for performance in the 5-CSRTT under (A) standard 5-CSRTT protocol (5 s ITI, 0.75 s SD, 100 trials) on days 1-4, 6-8, 10-11 (i.e. 9 days total run under this condition), and (B) the more difficult conditions of 10 s ITI, 0.3 s SD, 100 trials. The standard conditions were tested on days 1-4, 6-8, 10-11, and the more difficult conditions were tested on post-implant days 5, 9 and 12 (i.e. 3 days total run under this condition).
The result was significant on D2 (P<0.05). In FIG. 8A, B/L refers to ‘baseline’ conditions of 5 s ITI, 0.75 SD (calculated by taking the mean of the days immediately prior to and immediately following the test day). For example, B/L1 is the mean of performance on the days before and after D1 (since D1 is test day 5, B/L is mean of days 4 and 6).

[6] = 0.025-0.1 mg/kg SC, all 72 rats

**Q.** Which results are given for `CN(C)CCc1c[nH]c2cccc(OP(=O)(O)O)c12` [psilocybin, 4-phosphoryloxy-N,N-dimethyltryptamine]?
**A.** session duration ([1]; 0.1 mg/kg, low responder cohort): 18.7+2.5 min; break point [1, 6]: no treatment group was significantly different to vehicle; number of lever presses, session duration [1, 6]: no main effect of treatment; lever press and break point ([1]; 0.05-0.1 mg/kg pretreatment, low responder cohort N=24, relative to vehicle): increases in both measures; motor activity distance travelled ([2]; high doses): slightly decreased distanced travelled; motor activity distance travelled ([2]; low doses): increase in motor activity distance travelled; food responding ([3]; 0.05 mg/kg): increase in food responding; number of lever presses and break point ([3]; 0.05 mg/kg, low responders, P<0.05 vs. vehicle): significant increase; session duration ([3]; 0.05 mg/kg, low responders, P=0.07 vs. vehicle): 10.8 ± 1.9 min; food responding ([3]; 0.1 mg/kg): did not produce an increase in food responding; number of lever presses or break points ([3]; 0.05, 0.1 and 0.2 mg/kg S.C., entire study population of 36 rats): None of these doses were observed to cause obvious changes; response in PR test ([3]; 0.05-0.2 mg/kg S.C., high responder subgroup): no effect on response; Body Weight, Day 1 vs. Day 12, Average ([4]; Psilocybin 4 mg/mL minipump): 20.6; Body Weight, Day 1 vs. Day 12, Average ([4]; Psilocybin 6 mg/mL minipump): 19.3; Body Weight, Day 1 vs. Day 12, Average ([4]; Psilocybin 8 mg/mL minipump): 24.4; body weight over the study course ([4]; psilocybin minipump, 12 day study course): gaining body weight; weight gain compared with placebo treated animals ([4]; psilocybin minipump, 12 days): gained weight to a lesser amount; mean performance on Days 1-3 ([5]; 10 s ITI challenge days, vs. vehicle, p=0.03): significantly improved; % correct / performance ([5]; 10 s ITI, Challenge Day 2 (D2, test day 9), vs vehicle): significant improvement; also recorded: significant (P=0.01) increase; % correct responses ([5]; challenging conditions 10 s ITI, 0.3 s SD, test days 5, 9 and 12, vs vehicle): performed better than vehicle treated animals; increase in premature behaviors ([5]; more taxing/challenge conditions 10 s ITI, 0.3 s SD): do not have an increase in premature behaviors; increase in premature behaviors ([5]; standard conditions): do not have an increase in premature behaviors; correct attempts ([5]; minipump, standard test conditions, over a period of time): does not increase the number of correct attempts; also recorded: did not show that psilocybin caused an increase in correct attempts
